# Activity calls are given as the source filed them.
# How the values were obtained:
# [1] = target: Voltage-dependent T-type calcium channel subunit alpha-1H (Homo sapiens, UniProt O95180); type: functional;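 also: channel activity triggered by adding a high calcium stimulation buffer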
# [2] = target: T1, Small ubiquitin-related modifier 1 (Homo sapiens, UniProt P63165); assay: inhibitors of SUMO1 partner interactions, dose response, biochemical, FRET (AID 624383); type: functional; conditions: read-out: IC50_Mean
# [3] = target: 72 kDa type IV collagenase (Homo sapiens, UniProt P08253); assay: Dose Response validation of uHTS RPN11 inhibitor hits using a MMP-2 Fluorescence assay.; type: functional
# [4] = target: T2, Aminopeptidase N (Plasmodium falciparum FcB1/Columbia, UniProt O96935); assay: P. falciparum M1AAP inhibitors, biochemical, fluorogenic H-Leu-NHMec substrate, 1536-well (AID 1445); set-up: species or system Plasmodium falciparum 3D7, 3D7
# T2 sequence (O96935 whole entry): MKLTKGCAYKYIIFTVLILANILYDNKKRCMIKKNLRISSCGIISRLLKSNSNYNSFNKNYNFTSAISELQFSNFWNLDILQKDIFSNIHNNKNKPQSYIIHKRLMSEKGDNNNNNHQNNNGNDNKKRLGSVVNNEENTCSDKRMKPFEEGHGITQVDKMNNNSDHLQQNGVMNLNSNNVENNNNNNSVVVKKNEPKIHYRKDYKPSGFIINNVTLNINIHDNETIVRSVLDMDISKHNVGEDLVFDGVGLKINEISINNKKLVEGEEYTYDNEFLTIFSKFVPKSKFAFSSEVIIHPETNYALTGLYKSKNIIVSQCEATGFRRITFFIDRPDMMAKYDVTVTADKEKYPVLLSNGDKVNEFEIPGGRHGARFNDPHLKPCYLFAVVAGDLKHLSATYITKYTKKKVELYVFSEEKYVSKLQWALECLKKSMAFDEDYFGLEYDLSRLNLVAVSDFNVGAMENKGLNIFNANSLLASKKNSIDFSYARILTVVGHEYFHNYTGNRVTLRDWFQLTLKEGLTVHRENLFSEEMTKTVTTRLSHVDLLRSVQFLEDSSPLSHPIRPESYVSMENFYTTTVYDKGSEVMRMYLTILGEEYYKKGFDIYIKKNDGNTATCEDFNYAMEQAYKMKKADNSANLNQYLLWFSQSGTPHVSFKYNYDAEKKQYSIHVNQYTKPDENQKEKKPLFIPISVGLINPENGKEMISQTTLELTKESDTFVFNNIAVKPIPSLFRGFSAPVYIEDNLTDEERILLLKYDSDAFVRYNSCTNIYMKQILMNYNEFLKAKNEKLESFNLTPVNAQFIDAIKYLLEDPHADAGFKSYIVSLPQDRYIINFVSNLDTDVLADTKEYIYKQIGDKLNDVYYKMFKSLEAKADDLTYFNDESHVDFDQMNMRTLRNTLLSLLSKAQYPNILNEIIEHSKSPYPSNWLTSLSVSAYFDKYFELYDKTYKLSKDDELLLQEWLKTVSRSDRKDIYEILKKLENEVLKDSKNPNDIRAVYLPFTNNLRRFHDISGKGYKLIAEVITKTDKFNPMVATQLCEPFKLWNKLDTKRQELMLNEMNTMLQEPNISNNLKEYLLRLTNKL
# [5] = target: T3, Bifunctional protein GlmU (Mycobacterium tuberculosis, UniProt P9WMN3); assay: Inhibitors of Mycobacterial Glucosamine-1-phosphate acetyl transferase (GlmU). Secondary screen.; set-up: species or system Mycobacterium tuberculosis H37Rv
# T3 sequence (P9WMN3 whole entry): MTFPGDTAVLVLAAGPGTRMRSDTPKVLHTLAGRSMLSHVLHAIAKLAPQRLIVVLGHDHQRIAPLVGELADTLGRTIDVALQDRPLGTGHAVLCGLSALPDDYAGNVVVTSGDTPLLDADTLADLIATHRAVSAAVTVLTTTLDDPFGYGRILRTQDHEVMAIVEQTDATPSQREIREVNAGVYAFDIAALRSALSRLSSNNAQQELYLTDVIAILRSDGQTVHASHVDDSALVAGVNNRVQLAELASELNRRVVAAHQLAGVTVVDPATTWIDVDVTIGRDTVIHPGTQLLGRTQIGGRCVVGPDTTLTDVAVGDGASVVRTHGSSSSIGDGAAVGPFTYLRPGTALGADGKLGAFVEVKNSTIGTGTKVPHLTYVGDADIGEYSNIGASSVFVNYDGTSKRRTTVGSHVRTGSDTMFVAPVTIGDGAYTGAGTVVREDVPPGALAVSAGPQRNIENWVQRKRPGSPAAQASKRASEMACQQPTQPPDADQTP
# [6] = target: T4, Zinc finger protein mex-5 (Caenorhabditis elegans, UniProt Q9XUB2); assay: MEX-5/TCR-2 RNA interaction inhibitors, dose response, biochemical, C. elegans, fluorescence polarization (AID 1960)
# T4 sequence (Q9XUB2 whole entry): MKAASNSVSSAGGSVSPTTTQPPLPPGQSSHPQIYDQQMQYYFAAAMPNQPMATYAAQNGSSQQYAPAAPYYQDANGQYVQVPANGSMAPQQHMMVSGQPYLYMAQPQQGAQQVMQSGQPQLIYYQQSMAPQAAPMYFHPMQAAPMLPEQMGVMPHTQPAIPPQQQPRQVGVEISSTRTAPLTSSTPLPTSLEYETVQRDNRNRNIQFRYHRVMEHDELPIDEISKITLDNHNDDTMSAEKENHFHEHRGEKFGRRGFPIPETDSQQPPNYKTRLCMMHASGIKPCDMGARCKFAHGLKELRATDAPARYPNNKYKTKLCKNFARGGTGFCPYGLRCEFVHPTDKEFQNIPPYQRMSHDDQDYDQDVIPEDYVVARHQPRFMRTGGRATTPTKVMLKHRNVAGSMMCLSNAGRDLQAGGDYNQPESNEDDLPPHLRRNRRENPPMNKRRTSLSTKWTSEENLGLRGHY
# [7] = target: Transitional endoplasmic reticulum ATPase (Homo sapiens, UniProt P55072); assay: p97 ATPase inhibitors, dose response, biochemical (AID 1534)
# [8] = target: Prothrombin (Bos taurus, UniProt P00735); assay: thrombin inhibition, dose response, biochemical, fluorescence polarization, uHTS hits (AID 602369); type: functional
# [9] = target: T1, Small ubiquitin-related modifier 1; assay: inhibitors of SUMO1 peptide binding, dose response, biochemical, fluorescence polarization, uHTS hits (AID 624382); type: functional; conditions: read-out: IC50_Mean
# [10] = target: T5, RNA-binding protein pos-1 (Caenorhabditis elegans, UniProt G5EF15); assay: inhibitors of POS-1/mex-3 RNA binding, dose response, biochemical, fluorescence polarization (AID 1964);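 also: purified POS-1 fused to maltose binding protein made in E. coli; potency of compounds blocking POS-1 binding to fluorescent RNA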
# T5 sequence (G5EF15 whole entry): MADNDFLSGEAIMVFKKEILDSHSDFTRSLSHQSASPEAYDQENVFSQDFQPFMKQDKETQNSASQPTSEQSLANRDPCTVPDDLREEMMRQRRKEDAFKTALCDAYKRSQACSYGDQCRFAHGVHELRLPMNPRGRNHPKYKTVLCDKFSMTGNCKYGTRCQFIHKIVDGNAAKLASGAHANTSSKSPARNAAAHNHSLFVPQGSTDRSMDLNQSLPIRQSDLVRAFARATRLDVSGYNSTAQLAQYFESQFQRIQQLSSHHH
# [11] = target: Albumin (Bos taurus, UniProt P02769); assay: Counterscreen for inhibitors of T-cell receptor (TCR)-CD3 interaction: Fluorescence-based biochemical high throughput dose response assay to identify inhibitors of T-cell receptor (TCR)-CD3 interaction using a TAMRA-labeled BSA probe.; type: functional
# [12] = target: Induced myeloid leukemia cell differentiation protein Mcl-1 (Homo sapiens, UniProt Q07820); type: functional
# [13] = target: T6, RNA-editing ligase 1, mitochondrial (Trypanosoma brucei brucei, UniProt P86926); assay: TbREL1 ligase inhibitors, dose response, biochemical, fluorescence, Trypanosoma brucei (AID 1117295); type: functional
# T6 sequence (P86926 whole entry): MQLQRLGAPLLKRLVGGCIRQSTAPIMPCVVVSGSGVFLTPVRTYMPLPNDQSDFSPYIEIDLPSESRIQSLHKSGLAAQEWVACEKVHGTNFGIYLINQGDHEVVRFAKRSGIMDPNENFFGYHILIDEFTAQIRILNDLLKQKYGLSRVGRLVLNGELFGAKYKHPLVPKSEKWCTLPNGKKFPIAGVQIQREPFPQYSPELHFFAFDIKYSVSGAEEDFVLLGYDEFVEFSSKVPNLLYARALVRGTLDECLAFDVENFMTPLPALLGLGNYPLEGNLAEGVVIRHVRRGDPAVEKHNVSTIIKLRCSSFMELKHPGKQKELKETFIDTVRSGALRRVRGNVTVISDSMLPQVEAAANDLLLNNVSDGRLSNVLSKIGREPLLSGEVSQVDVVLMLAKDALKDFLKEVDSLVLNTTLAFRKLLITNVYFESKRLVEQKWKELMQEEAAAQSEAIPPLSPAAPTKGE
# [14] = target: 26S proteasome non-ATPase regulatory subunit 14 (Homo sapiens, UniProt O00487); assay: inhibition of proteasome subunit RPN11 – biochemical, fluorescence polarization, uHTS hits, confirmation (AID 602368); type: functional
# [15] = target: Transitional endoplasmic reticulum ATPase (Homo sapiens, UniProt P55072, C522A); assay: C522A mutant p97 ATPase inhibitors, dose response, counter-screen for p97 inhibitor project, biochemical, luminescence (AID 1544)
# [16] = target: T7, Long-chain-fatty-acid--AMP ligase FadD28 (Mycobacterium tuberculosis, UniProt P9WQ59); assay: Fluorescence polarization aasay to screen for inhibitors that compete for the binding of FadD28 to a bisubstrate Measured in Biochemical System Using Plate Reader - 2147-01_Inhibitor_Dose_CherryPick_Activity.; type: functional, Mycobacterium tuberculosis H37Rv
# T7 sequence (P9WQ59 whole entry): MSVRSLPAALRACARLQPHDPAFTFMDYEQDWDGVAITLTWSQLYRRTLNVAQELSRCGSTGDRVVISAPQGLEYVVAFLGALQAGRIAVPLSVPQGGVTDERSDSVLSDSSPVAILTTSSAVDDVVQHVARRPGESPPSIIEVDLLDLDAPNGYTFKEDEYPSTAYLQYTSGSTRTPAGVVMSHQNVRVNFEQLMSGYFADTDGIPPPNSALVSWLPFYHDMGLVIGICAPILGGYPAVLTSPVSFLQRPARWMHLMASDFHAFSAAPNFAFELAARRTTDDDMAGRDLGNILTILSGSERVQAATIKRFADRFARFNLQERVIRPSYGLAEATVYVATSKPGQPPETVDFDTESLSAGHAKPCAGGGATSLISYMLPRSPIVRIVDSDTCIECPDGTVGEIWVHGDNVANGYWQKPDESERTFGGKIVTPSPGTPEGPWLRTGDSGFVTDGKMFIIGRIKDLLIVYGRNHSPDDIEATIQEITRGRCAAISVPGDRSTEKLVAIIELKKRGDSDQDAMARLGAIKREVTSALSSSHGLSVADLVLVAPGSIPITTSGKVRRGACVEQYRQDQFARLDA
# [17] = target: T8, Corticotropin-releasing factor receptor 2/Corticotropin-releasing factor-binding protein (Homo sapiens, UniProt P24387+Q13324); assay: activators of CRF receptor 2 with binding protein – uHTS hits, confirmation (AID 602473); type: functional; conditions: read-out: EC50_Mean
# T8 sequence (Q13324 whole entry): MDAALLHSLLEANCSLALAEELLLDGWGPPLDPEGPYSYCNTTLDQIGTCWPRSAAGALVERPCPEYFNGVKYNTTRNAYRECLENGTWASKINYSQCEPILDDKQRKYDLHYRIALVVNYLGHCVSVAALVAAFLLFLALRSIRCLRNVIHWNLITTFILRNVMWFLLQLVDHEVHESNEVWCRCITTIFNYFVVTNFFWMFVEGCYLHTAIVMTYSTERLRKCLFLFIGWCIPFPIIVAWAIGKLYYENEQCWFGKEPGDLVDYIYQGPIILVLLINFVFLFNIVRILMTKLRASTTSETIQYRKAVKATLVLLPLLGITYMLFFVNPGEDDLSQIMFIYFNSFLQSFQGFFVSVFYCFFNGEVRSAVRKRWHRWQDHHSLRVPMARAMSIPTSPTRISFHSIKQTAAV
# T8 sequence (P24387 whole entry): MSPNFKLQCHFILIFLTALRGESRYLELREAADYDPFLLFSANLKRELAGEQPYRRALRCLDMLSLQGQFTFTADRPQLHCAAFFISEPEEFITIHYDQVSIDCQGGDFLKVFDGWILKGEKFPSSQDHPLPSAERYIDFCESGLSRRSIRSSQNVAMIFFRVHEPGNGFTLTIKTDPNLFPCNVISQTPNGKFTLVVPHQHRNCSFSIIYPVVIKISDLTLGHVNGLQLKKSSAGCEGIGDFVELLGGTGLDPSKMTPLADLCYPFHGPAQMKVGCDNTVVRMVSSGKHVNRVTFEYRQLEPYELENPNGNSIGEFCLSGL
# [18] = CRF-BP/CRF-R2 complex antagonists, dose response, cell-based, uHTS hits, 384-well (AID 651639); type: functional, Homo sapiens; conditions: read-out: IC50_Mean
# [19] = target: T8, Corticotropin-releasing factor receptor 2/Corticotropin-releasing factor-binding protein; assay: Dose Response confirmation of uHTS hits for small molecule antagonists of the CRF-binding protein and CRF-R2 receptor complex.; type: functional; conditions: read-out: IC50_Mean
# [20] = target: Cytochrome P450 2C9 (Homo sapiens, UniProt P11712); conditions: Potency
# Sequence of Transitional endoplasmic reticulum ATPase (Homo sapiens, UniProt P55072) (P55072 whole entry): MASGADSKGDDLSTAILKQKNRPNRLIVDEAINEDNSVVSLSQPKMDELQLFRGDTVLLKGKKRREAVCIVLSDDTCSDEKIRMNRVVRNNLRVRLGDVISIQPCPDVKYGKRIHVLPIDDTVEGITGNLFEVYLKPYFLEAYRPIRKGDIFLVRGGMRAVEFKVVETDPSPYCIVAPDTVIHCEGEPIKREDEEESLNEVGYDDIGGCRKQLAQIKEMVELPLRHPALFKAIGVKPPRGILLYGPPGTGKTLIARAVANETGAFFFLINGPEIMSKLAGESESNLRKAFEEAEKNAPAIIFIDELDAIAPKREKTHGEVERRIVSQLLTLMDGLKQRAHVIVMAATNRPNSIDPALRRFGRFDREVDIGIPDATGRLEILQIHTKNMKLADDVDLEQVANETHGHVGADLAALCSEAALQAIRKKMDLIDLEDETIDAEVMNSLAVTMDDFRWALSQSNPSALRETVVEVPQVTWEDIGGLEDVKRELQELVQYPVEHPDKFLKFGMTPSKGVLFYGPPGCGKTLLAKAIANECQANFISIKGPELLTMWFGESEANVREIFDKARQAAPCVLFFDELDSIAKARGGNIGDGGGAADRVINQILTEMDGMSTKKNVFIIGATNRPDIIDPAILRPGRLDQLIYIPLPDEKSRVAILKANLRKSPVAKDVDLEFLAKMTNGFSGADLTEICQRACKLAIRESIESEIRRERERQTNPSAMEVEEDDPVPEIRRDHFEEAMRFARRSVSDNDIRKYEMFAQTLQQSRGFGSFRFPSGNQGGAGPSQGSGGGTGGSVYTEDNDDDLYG
# Sequence of Voltage-dependent T-type calcium channel subunit alpha-1H (O95180 whole entry): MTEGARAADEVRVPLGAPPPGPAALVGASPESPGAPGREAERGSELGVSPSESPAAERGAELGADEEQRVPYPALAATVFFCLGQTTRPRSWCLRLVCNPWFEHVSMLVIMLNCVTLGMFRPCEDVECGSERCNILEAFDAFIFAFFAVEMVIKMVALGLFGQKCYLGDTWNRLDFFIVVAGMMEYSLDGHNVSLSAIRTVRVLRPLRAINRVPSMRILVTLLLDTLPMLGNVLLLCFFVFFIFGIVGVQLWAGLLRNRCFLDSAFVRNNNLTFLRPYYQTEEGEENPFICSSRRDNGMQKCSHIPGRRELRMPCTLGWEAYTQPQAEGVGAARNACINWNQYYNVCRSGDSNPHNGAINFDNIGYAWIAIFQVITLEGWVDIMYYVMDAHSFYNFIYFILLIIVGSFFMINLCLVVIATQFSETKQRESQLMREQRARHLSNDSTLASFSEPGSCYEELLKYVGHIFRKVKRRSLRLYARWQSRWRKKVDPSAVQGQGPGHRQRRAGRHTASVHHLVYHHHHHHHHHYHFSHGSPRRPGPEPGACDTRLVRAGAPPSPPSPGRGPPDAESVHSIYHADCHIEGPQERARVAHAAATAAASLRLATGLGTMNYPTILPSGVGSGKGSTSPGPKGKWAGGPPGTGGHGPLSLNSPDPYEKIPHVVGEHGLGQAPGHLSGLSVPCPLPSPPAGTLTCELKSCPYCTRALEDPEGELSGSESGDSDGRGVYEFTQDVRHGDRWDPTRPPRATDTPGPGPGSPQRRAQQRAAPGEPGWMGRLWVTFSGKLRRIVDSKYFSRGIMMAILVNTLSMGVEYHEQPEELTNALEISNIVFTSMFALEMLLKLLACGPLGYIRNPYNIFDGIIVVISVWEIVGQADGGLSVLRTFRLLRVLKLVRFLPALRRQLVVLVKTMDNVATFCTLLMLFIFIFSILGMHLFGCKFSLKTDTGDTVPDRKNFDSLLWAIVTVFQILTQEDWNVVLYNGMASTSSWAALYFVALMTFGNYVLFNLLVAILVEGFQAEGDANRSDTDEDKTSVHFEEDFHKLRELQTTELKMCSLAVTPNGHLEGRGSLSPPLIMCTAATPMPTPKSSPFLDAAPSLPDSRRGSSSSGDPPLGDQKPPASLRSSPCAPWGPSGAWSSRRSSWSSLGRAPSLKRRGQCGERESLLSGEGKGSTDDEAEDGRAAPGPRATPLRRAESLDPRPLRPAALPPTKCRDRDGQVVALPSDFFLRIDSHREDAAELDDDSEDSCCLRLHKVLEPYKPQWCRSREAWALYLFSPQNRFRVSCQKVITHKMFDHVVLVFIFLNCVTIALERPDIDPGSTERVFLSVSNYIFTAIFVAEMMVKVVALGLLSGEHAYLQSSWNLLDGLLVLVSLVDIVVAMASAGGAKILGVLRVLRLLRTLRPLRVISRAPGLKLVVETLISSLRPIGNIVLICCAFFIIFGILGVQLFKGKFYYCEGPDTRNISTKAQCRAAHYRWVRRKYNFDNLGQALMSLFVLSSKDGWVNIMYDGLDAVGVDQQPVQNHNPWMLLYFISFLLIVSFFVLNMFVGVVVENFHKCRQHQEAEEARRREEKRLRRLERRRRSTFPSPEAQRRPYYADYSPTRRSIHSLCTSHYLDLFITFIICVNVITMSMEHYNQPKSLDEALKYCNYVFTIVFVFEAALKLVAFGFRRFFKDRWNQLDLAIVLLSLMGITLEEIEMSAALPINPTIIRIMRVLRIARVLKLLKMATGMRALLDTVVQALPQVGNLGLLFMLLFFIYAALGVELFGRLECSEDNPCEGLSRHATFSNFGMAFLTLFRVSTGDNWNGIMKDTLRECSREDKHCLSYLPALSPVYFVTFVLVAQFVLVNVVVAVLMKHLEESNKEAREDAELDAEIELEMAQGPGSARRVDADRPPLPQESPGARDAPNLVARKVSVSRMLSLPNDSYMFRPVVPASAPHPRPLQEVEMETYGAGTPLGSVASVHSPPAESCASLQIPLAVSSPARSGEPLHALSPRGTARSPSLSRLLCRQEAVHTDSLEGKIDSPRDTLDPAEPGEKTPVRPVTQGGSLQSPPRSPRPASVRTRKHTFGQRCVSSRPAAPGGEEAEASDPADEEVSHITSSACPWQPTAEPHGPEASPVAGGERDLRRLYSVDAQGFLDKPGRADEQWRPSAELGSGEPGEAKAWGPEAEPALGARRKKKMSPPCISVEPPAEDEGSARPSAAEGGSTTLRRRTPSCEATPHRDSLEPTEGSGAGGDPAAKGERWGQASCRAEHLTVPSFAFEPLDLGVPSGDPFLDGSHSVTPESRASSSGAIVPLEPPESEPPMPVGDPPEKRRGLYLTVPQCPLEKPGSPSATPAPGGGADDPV
# T1 sequence (P63165 whole entry): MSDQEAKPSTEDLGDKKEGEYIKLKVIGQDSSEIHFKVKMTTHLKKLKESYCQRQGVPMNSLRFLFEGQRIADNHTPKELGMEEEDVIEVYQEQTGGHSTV
# Sequence of Transitional endoplasmic reticulum ATPase (Homo sapiens, UniProt P55072, C522A) (P55072 2-806 C522A limits assumed): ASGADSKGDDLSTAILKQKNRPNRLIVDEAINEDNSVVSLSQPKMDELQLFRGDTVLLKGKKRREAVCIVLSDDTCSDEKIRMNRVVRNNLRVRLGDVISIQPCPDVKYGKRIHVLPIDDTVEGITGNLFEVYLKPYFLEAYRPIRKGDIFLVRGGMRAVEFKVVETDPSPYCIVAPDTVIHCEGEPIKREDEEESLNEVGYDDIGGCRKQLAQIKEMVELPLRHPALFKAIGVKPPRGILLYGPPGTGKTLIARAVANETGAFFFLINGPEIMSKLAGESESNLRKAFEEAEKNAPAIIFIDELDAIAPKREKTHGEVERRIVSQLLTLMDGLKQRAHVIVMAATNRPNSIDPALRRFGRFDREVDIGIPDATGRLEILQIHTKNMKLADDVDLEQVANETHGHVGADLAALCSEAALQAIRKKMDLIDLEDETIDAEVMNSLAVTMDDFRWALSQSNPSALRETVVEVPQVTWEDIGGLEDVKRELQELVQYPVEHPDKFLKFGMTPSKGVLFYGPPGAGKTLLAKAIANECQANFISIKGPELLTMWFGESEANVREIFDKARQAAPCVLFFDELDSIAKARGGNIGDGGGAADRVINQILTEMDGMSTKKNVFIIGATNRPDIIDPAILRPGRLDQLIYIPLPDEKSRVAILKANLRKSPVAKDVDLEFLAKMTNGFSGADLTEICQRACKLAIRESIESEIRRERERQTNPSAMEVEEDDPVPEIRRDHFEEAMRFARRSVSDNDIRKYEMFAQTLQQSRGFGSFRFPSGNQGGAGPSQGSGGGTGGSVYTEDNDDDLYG
# Sequence of 26S proteasome non-ATPase regulatory subunit 14 (O00487 whole entry): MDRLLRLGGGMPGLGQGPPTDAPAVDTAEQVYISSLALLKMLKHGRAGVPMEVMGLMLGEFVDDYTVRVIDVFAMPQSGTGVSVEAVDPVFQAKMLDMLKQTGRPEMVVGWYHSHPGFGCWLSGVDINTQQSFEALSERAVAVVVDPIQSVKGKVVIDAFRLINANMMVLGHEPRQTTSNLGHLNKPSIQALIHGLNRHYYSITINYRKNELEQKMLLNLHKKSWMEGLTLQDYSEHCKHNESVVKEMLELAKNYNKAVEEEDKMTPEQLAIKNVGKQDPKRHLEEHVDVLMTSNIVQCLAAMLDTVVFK
# Sequence of Albumin (P02769 whole entry): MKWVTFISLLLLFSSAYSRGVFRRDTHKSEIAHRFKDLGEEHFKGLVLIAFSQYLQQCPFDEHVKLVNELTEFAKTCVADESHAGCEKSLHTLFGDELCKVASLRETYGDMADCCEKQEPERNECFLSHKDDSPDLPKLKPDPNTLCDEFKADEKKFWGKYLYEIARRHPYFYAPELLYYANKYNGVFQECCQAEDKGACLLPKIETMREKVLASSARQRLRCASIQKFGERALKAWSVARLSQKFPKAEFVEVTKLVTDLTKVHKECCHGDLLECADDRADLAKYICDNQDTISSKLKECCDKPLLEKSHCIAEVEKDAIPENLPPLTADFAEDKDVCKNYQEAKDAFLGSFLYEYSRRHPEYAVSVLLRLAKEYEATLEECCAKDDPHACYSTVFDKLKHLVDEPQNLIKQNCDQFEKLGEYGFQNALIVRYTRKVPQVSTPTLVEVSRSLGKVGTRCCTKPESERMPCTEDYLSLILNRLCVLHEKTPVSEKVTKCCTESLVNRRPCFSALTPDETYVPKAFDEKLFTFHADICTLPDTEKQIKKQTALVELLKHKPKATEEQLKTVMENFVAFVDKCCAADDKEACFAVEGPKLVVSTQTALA
smiles,measurement,setting,value
CCCOc1cc(C)c(S(=O)(=O)n2ccc(C)n2)cc1C,EC50,[1],5.47 µM (active)
Cc1n[nH]c(S/C(=C\c2ccc(-c3ccc(C(=O)O)c(Cl)c3)o2)C(=O)O)n1,IC50,[2],13.1 µM (active)
same,IC50,[3],> 100 µM (inactive)
same,IC50,[4],11.3 µM (active)
same,IC50,[5],61.9 µM (active)
same,EC50,[6],1.38 µM (active)
same,IC50,[7],> 50 µM (not active)
same,IC50,[8],9.79 µM (active)
same,IC50,[9],> 66.6 µM (inactive)
same,EC50,[10],1.76 µM (active)
same,IC50,[11],> 94.1 µM (inactive)
same,IC50,[12],2.35 µM (active)
same,IC50,[13],22.9 µM (inactive)
same,IC50,[14],9.04 µM (active)
same,IC50,[15],> 50 µM (not active)
Cc1[nH]c2ccccc2c1/C=C1/C(=N)N2C(=NC1=O)SN=C2S(=O)(=O)CC(C)C,AC50,[16],> 100 µM (inactive)
same,IC50,[4],29.5 µM (active)
same,IC50,[7],12.3 µM (not active)
same,EC50,[17],> 53 µM (inactive)
same,IC50,[18],> 20 µM (inactive)
same,IC50,[19],9.51 µM (active)
same,IC50,[15],> 50 µM (not active)
COc1ccc(-c2oc3cc(OC)c(OC(C)=O)c(OC)c3c(=O)c2OC)cc1OC(C)=O,AC50,[20],31.6 µM (inconclusive)
CCC(=O)N1CCN(c2ccccc2NC(=O)Cc2ccccc2)CC1,EC50,[1],12.9 µM (active)

# From ChEMBL document CHEMBL1201862, “PubChem BioAssay data set” (2004)
